In patent publication US11180444B2, “Polyimino ketoaldehydes” (NOVUM SPERO LTD., priority 2017, dated 2021):
“Also recorded” adds a separate entry of the source.

What was measured:
[1] = test system: Avian Pathogenic Escherichia coli multi-resistant strain; experiment: Inhibition zones, disc test; assay type: cell-based
[2] = test system: gram-positive and gram-negative bacteria including multi-resistant bacteria; experiment: In vitro testing of antibacterial properties; assay type: cell-based

In the case of “Trimethoprim sulphate [reference compound]”, the Inhibition zone ([1]; 1.25 μg + 23.75 μg per disc) is reported as 0 mm.

`CC1(C)S[C@@H]2[C@H](NC(=O)[C@H](N)c3ccc(O)cc3)C(=O)N2[C@H]1C(=O)O` [Amoxicillin, reference compound] was tested, and the zone of inhibition at 25 µg/disc ([1]; Escherichia coli, 25 μg per disc) was 0 mm.

`CN(C)[C@@H]1C(O)=C(C(N)=O)C(=O)[C@@]2(O)C(O)=C3C(=O)c4c(O)cccc4[C@@](C)(O)[C@H]3C[C@@H]12` [Tetracycline, reference compound] showed a zone of inhibition at 30 µg/disc ([1]; Escherichia coli, read-out: Inhibition zone) of 0 mm.

For `Cc1cc(C)nc(NS(=O)(=O)c2ccc(N)cc2)n1` [Sulfadimidine, reference compound], the zone of inhibition at 300 µg/disc ([1]; Escherichia coli, 300 μg per disc) was 0 mm.

“1-amino-tetratriacontyl-henicosa-20-on-21-al [CM]” was tested, and the Inhibition zone ([1]; 10 μL of solution (350 μg/1 μL) per disc) was 8 mm, the Inhibition zone ([1]; 15 μL of solution (350 μg/1 μL) per disc) was 9 mm and the Inhibition zone ([1]; 20 μL of solution (350 μg/1 μL) per disc) was 10 mm. For the same compound, the “Inhibitory activity against the strain (in words)” value ([1]; compared with antibiotics in their standard dose) was “has an effect on the inhibition; also recorded: shows inhibitory activity” and the “Antibacterial properties (in words)” value [2] was “shows antibacterial properties”.
